Experiment [1] can be described thus: Thrombus to blood ratio was determined by canine thrombosis model. It is filed as functional.
Experiment [2] is filed under the species Canis familiaris. The experiment in a line: Percent injected dose in the thrombus was determined by canine thrombosis model. The class given is functional, organism-based. To be noted: Canis lupus familiaris.
For experiment [3], the species on record is Canis familiaris. The experiment in a line: Percent injected dose in the blood was determined by canine thrombosis model. To be noted: Canis lupus familiaris. The class given is functional, organism-based.
The species named for a further experiment is Homo sapiens. Kind of experiment: Inhibition of ADP-induced platelet aggregation in human platelet rich citreated plasma in presence of 10-20 uM ADP. The class given is functional.
The nature of experiment [4]: Thrombus to muscle ratio was determined by canine thrombosis model. It is filed as functional, Muscle tissue.

Where a SMILES comes first, the peptide text is derived from it. Bridges are numbered along the chain shown (N, C = ends). [ ]: non-standard residue; d: D form. The star is where a group is joined. Propyl(3-NH2) = NCCC*; Acm = CC(=O)NC*

This passage reports Ratio, ID/g and IC50 results from ChEMBL document CHEMBL1129533, “Thrombus imaging using technetium-99m-labeled high-potency GPIIb/IIIa receptor antagonists. Chemistry and initial biological studies” (J Med Chem, 1996).

In the case of `N=C(N)c1ccc(C[C@H]2NC(=O)[C@H](Cc3ccc(O)cc3)NC(=O)CSC[C@H](C(=O)N[C@@H](CCCCN)C(=O)NCC(=O)N[C@@H](CSCC(=O)CC(=O)N[C@@H](CCCCN)C(=O)N[C@@H](CCCCN)C(=O)NCC(=O)N[C@@H](CS)C(=O)O)C(=O)NCC(N)=O)NC(=O)[C@@H](CC(=O)O)NC(=O)CNC2=O)cc1`, the Ratio in experiment [1] stood at 7.2. In addition, the ID/g in the experiment listed under Canis familiaris [2] was determined as 0.017%; in the experiment filed under Canis familiaris [3] it was 0.0025%.

Turning to `NCCCC[C@H](NC(=O)[C@@H]1CSCC(=O)N[C@H](Cc2ccc(O)cc2)C(=O)N[C@@H](CSCCCN)C(=O)NCC(=O)N[C@@H](CC(=O)O)C(=O)N1)C(=O)N[C@@H](CS)C(=O)NCC(N)=O`, the concentration for half-maximal inhibition (IC50) in the experiment listed under Homo sapiens was found to be 0.14 µM. On to `CC(=O)NCSC[C@H](NC(=O)CNC(=O)CNC(=O)[C@@H]1CSCC(=O)N[C@H](Cc2ccc(O)cc2)C(=O)N[C@@H](CSCCCN)C(=O)NCC(=O)N[C@@H](CC(=O)O)C(=O)N1)C(=O)NCC(=O)N[C@@H](CSCNC(C)=O)C(=O)NCC(=O)NCC(=O)N[C@@H](CSCC(=O)CC(=O)N[C@@H](CCCCN)C(=O)N[C@@H](CCCCN)C(=O)N[C@@H](CCCCN)C(=O)N[C@@H](CCCCN)C(=O)NCC(=O)N[C@@H](CS)C(=O)O)C(N)=O`, for which the 50% inhibitory concentration (IC50) in the experiment filed under Homo sapiens worked out at 0.03 µM. For the molecule `CC(=O)NCSC[C@H](NC(=O)CNC(=O)CNC(=O)[C@@H]1CSCC(=O)N[C@H](Cc2ccc(O)cc2)C(=O)N[C@@H](CSCCCN)C(=O)NCC(=O)N[C@@H](CC(=O)O)C(=O)N1)C(=O)NCC(=O)N[C@@H](CSCNC(C)=O)C(=O)NCC(=O)NCC(=O)N[C@@H](CSC1CCNC(=O)CNCCNC(=O)CNCCNC(=O)C1)C(N)=O` (some centres not stated), the 50% inhibitory concentration (IC50) in the experiment listed under Homo sapiens stood at 0.03 µM. On the same count and under the same terms, the figure for `CC(=O)NCSC[C@H](NC(=O)CNC(=O)[C@H](CSCNC(C)=O)NC(=O)CNC(=O)[C@H](CCCCN)NC(=O)[C@@H]1CSCC(=O)N[C@H](Cc2ccc(O)cc2)C(=O)N[C@@H](CSCCCN)C(=O)NCC(=O)N[C@@H](CC(=O)O)C(=O)N1)C(N)=O` is 0.16 µM. Same read-out and setting: for `CC(=O)NCSC[C@H](NC(=O)CNC(=O)[C@H](CSCNC(C)=O)NC(=O)CNC(=O)CNC(=O)CNC(=O)[C@@H]1CSCC(=O)N[C@H](Cc2ccc(O)cc2)C(=O)N[C@@H](CSCCCN)C(=O)NCC(=O)N[C@@H](CC(=O)O)C(=O)N1)C(N)=O` ({CH2CO}-[dY]C(Propyl(3-NH2))GDCGGGC(Acm)GC(Acm)-NH2; thioether N-5) the value was 0.3 µM; for `NCCCC[C@H](NC(=O)[C@@H]1CSCC(=O)N[C@H](Cc2ccc(O)cc2)C(=O)N[C@@H](CSCCCN)C(=O)NCC(=O)N[C@@H](CC(=O)O)C(=O)N1)C(=O)NCC(=O)N[C@@H](CS)C(=O)NCC(=O)N[C@@H](CS)C(=O)NCC(=O)NCC(=O)N[C@@H](CSC1CC(=O)[N+]2(COC2)C1=O)C(N)=O` (some centres not stated), 0.04 µM.

For `N=C(N)c1ccc(C[C@@H]2NC(=O)[C@@H](Cc3ccc(O)cc3)NC(=O)CSC[C@@H](C(=O)N[C@@H](CCCCN)C(=O)NCC(=O)N[C@@H](CSCC(=O)CC(=O)N[C@@H](CCCCN)C(=O)N[C@@H](CCCCN)C(=O)NCC(=O)N[C@@H](CS)C(=O)O)C(=O)NCC(N)=O)NC(=O)[C@H](CC(=O)O)NC(=O)CNC2=O)cc1` [listing 1 of 2 here], in experiment [4], the Ratio is on record as 41.

Take `CC(=O)NCSC[C@H](NC(=O)CNC(=O)CNC(=O)[C@H]1CSCC(=O)N[C@@H](Cc2ccc(O)cc2)C(=O)N[C@H](CSCCCN)C(=O)NCC(=O)N[C@H](CC(=O)O)C(=O)N1)C(=O)NCC(=O)N[C@@H](CSCNC(C)=O)C(=O)NCC(=O)NCC(=O)N[C@@H](CSCC(=O)CC(=O)N[C@@H](CCCCN)C(=O)N[C@@H](CCCCN)C(=O)NCC(=O)N[C@@H](CS)C(=O)O)C(=O)NCC(=O)[C@@H]1CSC23SCC(NC(=O)[C@H](CSCC(=O)CC(=O)N[C@@H](CCCCN)C(=O)N[C@@H](CCCCN)C(=O)NCC(=O)N[C@@H](CS)C(=O)O)NC(=O)CNC(=O)CNC(=O)[C@H](CSCNC(C)=O)NC(=O)CNC(=O)[C@H](CSCNC(C)=O)NC(=O)CNC(=O)CNC(=O)[C@H]4CSCC(=O)N[C@@H](Cc5ccc(O)cc5)C(=O)N[C@H](CSCCCN)C(=O)NCC(=O)N[C@H](CC(=O)O)C(=O)N4)C(=O)N2CC(=O)N13` (some centres not stated): the IC50 in the experiment filed under Homo sapiens came to 0.09 µM. For the molecule `CC(=O)NCSC[C@H](NC(=O)CNC(=O)CNC(=O)[C@@H]1CSCC(=O)N[C@H](Cc2ccc(O)cc2)C(=O)N[C@@H](CSCCCN)C(=O)NCC(=O)N[C@@H](CC(=O)O)C(=O)N1)C(=O)NCC(=O)N[C@@H](CSCNC(C)=O)C(=O)NCC(=O)NCC(=O)N[C@@H](CSCC(=O)CC(=O)N[C@@H](CCCCN)C(=O)N[C@@H](CCCCN)C(=O)NCC(=O)N[C@@H](CS)C(=O)O)C(N)=O`, the IC50 in the experiment listed under Homo sapiens stood at 0.11 µM. Same read-out and setting: the figure for `N=C(N)c1ccc(C[C@@H]2NC(=O)[C@@H](Cc3ccc(O)cc3)NC(=O)CSC[C@@H](C(=O)N[C@@H](CCCCN)C(=O)NCC(=O)N[C@@H](CS)C(=O)NCC(N)=O)NC(=O)[C@H](CC(=O)O)NC(=O)CNC2=O)cc1` is 0.08 µM; for `N=C(N)c1ccc(C[C@@H]2NC(=O)[C@@H](Cc3ccc(O)cc3)NC(=O)CSC[C@@H](C(=O)N[C@@H](CCCCN)C(=O)NCC(=O)N[C@@H](CSCC(=O)CC(=O)N[C@@H](CCCCN)C(=O)N[C@@H](CCCCN)C(=O)NCC(=O)N[C@@H](CS)C(=O)O)C(=O)NCC(N)=O)NC(=O)[C@H](CC(=O)O)NC(=O)CNC2=O)cc1` [listing 2 of 2 here] it is 0.03 µM. Same read-out and setting: the figure for `CC(=O)NCSC[C@H](NC(=O)CNC(=O)[C@H](CSCNC(C)=O)NC(=O)CNC(=O)CNC(=O)CNC(=O)[C@@H]1CSCC(=O)N[C@H](Cc2ccc(O)cc2)C(=O)N[C@@H](CCCN=C(N)N)C(=O)NCC(=O)N[C@@H](CC(=O)O)C(=O)N1)C(N)=O` is 1.4 µM; for `CC(=O)NCSC[C@H](NC(=O)CNC(=O)[C@H](CSCNC(C)=O)NC(=O)CNC(=O)CNC(=O)[C@@H]1CSCC(=O)N[C@H](Cc2ccc(O)cc2)C(=O)N[C@@H](CCCN=C(N)N)C(=O)NCC(=O)N[C@@H](CC(=O)O)C(=O)N1)C(N)=O` it is 1.3 µM. On the same count and under the same terms, the figure for `N=C(N)c1ccc(C[C@@H]2NC(=O)[C@@H](Cc3ccc(O)cc3)NC(=O)CSC[C@@H](C(=O)NCC(=O)NCC(=O)N[C@@H](CS)C(=O)NCC(=O)N[C@@H](CS)C(=O)NCC(=O)NCC(=O)N[C@@H](CSCC(=O)CC(=O)N[C@@H](CCCCN)C(=O)N[C@@H](CCCCN)C(=O)NCC(=O)N[C@@H](CS)C(=O)O)C(N)=O)NC(=O)[C@H](CC(=O)O)NC(=O)CNC2=O)cc1` is 0.05 µM; for `N=C(N)c1ccc(C[C@H]2NC(=O)[C@H](Cc3ccc(O)cc3)NC(=O)CSC[C@H](C(=O)N[C@@H](CCCCN)C(=O)NCC(=O)N[C@@H](CSCC(=O)CC(=O)N[C@@H](CCCCN)C(=O)N[C@@H](CCCCN)C(=O)NCC(=O)N[C@@H](CS)C(=O)O)C(=O)NCC(=O)NCC(=O)[C@@H]3CSC45SCC(NC(=O)CNC(=O)[C@H](CSCC(=O)CC(=O)N[C@@H](CCCCN)C(=O)N[C@@H](CCCCN)C(=O)NCC(=O)N[C@@H](CS)C(=O)O)NC(=O)CNC(=O)[C@H](CCCCN)NC(=O)[C@H]6CSCC(=O)N[C@@H](Cc7ccc(O)cc7)C(=O)N[C@H](Cc7ccc(C(=N)N)cc7)C(=O)NCC(=O)N[C@H](CC(=O)O)C(=O)N6)C(=O)N4CC(=O)N35)NC(=O)[C@@H](CC(=O)O)NC(=O)CNC2=O)cc1` (some centres not stated) it is 0.04 µM; for `NCCCC[C@H](NC(=O)CNC(=O)CNC(=O)[C@@H]1CSCC(=O)N[C@H](Cc2ccc(O)cc2)C(=O)N[C@@H](CSCCCN)C(=O)NCC(=O)N[C@@H](CC(=O)O)C(=O)N1)C(=O)NCC(=O)N[C@@H](CCCCN)C(=O)NCC(=O)N[C@@H](CCCCN)C(=O)N[C@@H](CCCCN)C(=O)NCC(=O)N[C@@H](CS)C(=O)NCC(N)=O` it is 0.11 µM. In the case of `CC(=O)NCSC[C@H](NC(=O)CNC(=O)CNC(=O)[C@@H]1CSCC(=O)N[C@H](Cc2ccc(O)cc2)C(=O)N[C@@H](CSCCCN)C(=O)NCC(=O)N[C@@H](CC(=O)O)C(=O)N1)C(=O)NCC(=O)N[C@@H](CSCNC(C)=O)C(=O)NCC(=O)NCC(=O)N[C@@H](CSC1CC(=O)[N+]2(CCCCCC2)C1=O)C(N)=O` (some centres not stated), the IC50 in the experiment filed under Homo sapiens is 0.14 µM. Same read-out and setting: the figure for `CC(=O)NCSC[C@H](NC(=O)CNC(=O)CNC(=O)[C@@H]1CSCC(=O)N[C@H](Cc2ccc(O)cc2)C(=O)N[C@@H](CSCCCN)C(=O)NCC(=O)N[C@@H](CC(=O)O)C(=O)N1)C(=O)NCC(=O)N[C@@H](CSCNC(C)=O)C(=O)NCC(=O)NCC(=O)N[C@@H](CSC1CC(=O)[N+]2(CCCNCCC2)C1=O)C(N)=O` (some centres not stated) is 0.04 µM; for `C[C@H](NC(=O)[C@H](CS)NC(=O)CNC(=O)[C@H](CCCCN)NC(=O)[C@H](CCCCN)NC(=O)CNC(=O)CNC(=O)[C@H](CCCCN)NC(=O)CNC(=O)CNC(=O)[C@H](CCCCN)NC(=O)[C@@H]1CSCC(=O)N[C@H](Cc2ccc(O)cc2)C(=O)N[C@@H](CSCCCN)C(=O)NCC(=O)N[C@@H](CC(=O)O)C(=O)N1)C(N)=O` it is 0.08 µM.
